From US4775743A, “Peptide derivatives” (Green Cross Corporation, priority 1985, dated 1988)
Square brackets hold non-standard residues; d marks the D form. Ends that are not written are not given here. Peptide text beside a SMILES is read from it. * marks the point of attachment. Desaminotyrosyl = O=C(CCc1ccc(O)cc1)*; Hyp = O=C(O)[C@@H]1C[C@@H](O)CN1

Tests used:
[1] = test system: rat PRP (platelet-rich plasma) / rat washed platelets; assay: Platelet agglutination inhibitory action (in vitro); type: cell-based; conditions: agglutination induced by arachidonic acid (1 mM), thrombin (0.8 U/ml) or Ca ionophore A-23187 (4 μM), FIGS. 1, 2 and 3
Description: Blood samples were taken from the abdominal artery of rats by means of a syringe containing 3.8% solution of sodium citrate, and the mixture (sodium citrate:blood=1:9) was centrifuged for ten minutes, giving platelet-rich plasma (PRP).
PRP thus collected was placed in cuvettes and kept in an incubator held at 37° C. for two minutes. Solutions of the compound obtained in Example 1 with different concentrations (diluted with a solution of 1.5 mM EDTA in a mixture of Tris-HCl buffer and sodium chloride solution (1:5)) were added, the resulting mixture in each cuvette was incubated for three minutes, and Ca ionophore A-23187 (final concentration: 4 μM), arachidonic acid (1 mM) or thrombin (0.8 U/ml) was added to measure the degree of agglutination. A solution of heparin sodium was used in place of sodium citrate when arachidonic acid was employed as agglutination inducer.

[2] = background statement on the prior-art compound; cited from earlier work

Compound | strength of inhibitory effect against platelet agglutination relative to compound P (control) [1] | half-life in the blood [2]
C[C@H](NC(=O)CNC(=O)[C@@H]1C[C@@H](O)CN1C(=O)[C@@H]1CCCN1C(=O)CCc1ccc(O)cc1)C(=O)NCC(=O)O [HP, N-3-(4-hydroxyphenyl)propionyl-L-prolyl-L-hydroxyprolyl-glycyl-L-alanyl-glycine] (Desaminotyrosyl-P[Hyp]GAG-OH) | about ten | –
P[Hyp]GAG [Compound P] | – | about ten
